One compound from patent US10857122B2, “Hypoestoxide, derivatives, related compounds, and agonists thereof for treatment or prevention of neurodegenerative diseases” (Immune Modulation, Inc., priority 2015, dated 2020) can be followed below.

For test [1], the system named is α-syn-tg mice. As to the kind of experiment: Immunohistochemical analysis of brain immune cells (Iba-1 microglia, GFAP astrocytes) in a mouse model of PD. The test is classed as in vivo. The conditions noted are these: 5 mg/kg IP daily for four weeks. The protocol:
(§1) Five-month-old non-tg and α-syn-tg female mice were injected intra-peritoneally (IP) with either vehicle (40% captisol) or 5 mg/kg of hypoestoxide daily for four weeks. The right hemibrains were post-fixed in phosphate-buffered 4% PFA at 4° C. for neuropathological analysis, while the left hemibrains were snap-frozen and stored at −70° C. for subsequent protein and mRNA analysis.
(§2) Blind-coded sagittal brain sections were incubated with primary antibodies at 4° C. for overnight. The next day, sections were incubated with either biotinylated- or FITC-conjugated secondary antibodies and detected with avid in D-HRP HRP (ABC elite, Vector Laboratories, Burlingame, Calif.) and with Tyramide Signal Amplification Direct system (PerkinElmer, Waltham, Mass.), respectively.
(§3) To determine the neuroinflammation, neurodegeneration, accumulation of α-synuclein, and NF-κB activation, brain sections were stained with Iba-1, GFAP, TNFα, IL-1β, IL6, human α-synuclein, NF-κB, and phosphorylated-NF-κB antibodies, respectively. Sections were imaged by Olympus BX41 microscope. All immunoreactivity levels were determined by optical density analysis using Image Quant 1.43 program (NIH) except the immunoreactivity of Iba-1. The cell numbers of Iba-1-positive cells were determined per field (230 μm×184 μm) of each animal based on cell body recognition using Image Quant 1.43 program (NIH).
FIGS. 1A-1F show analysis of the numbers of brain immune cells.
A positive interactive effect of HE treatment on Iba-1 optical density (Finteraction (1, 16)=80.48, p<0.0001), numbers of microglia branches (Finteraction (1, 16)=83.25, p<0.0001), GFAP optical density (Finteraction (1, 16)=15.88, p=0.0011), and numbers of astroglial branches (Finteraction (1, 16)=4.04, p=0.0616) was confirmed by two-way ANOVA.

Test [2] concerns α-syn-tg mice. As to the kind of experiment: Immunohistochemical analysis of pro-inflammatory cytokines in a mouse model of PD. Type of test: in vivo. As to conditions: neocortex of α-syn-tg mice; 5 mg/kg IP daily for four weeks. The protocol: as §1, §2, §3
(§4) The levels of pro-inflammatory cytokines were analyzed using immunohistochemical analysis and gene expression analysis. The levels of TNFα, IL-1ß and IL6 were increased in α-syn-tg mice compared to non-tg mice. […] A positive interactive effect of HE treatment on the levels of TNFα (Finteraction (1, 16)=12.34, p=0.0029), IL-1β (Finteraction (1, 16)=11.58, p=0.0036), and IL6 (Finteraction (1, 16)=31.06, p<0.0001) was confirmed by two-way ANOVA. […] A positive interactive effect of HE treatment on the mRNA levels of TNFα (Finteraction (1, 16)=15.78, p=0.0019), IL-1β (Finteraction (1, 16)=11.65, p=0.0051), and IL6 (Finteraction (1, 16)=6.40, p=0.0264) was confirmed by two-way ANOVA.

Test [3] relates to α-syn-tg mice. As to the kind of experiment: Quantitative gene expression analysis (qPCR) of pro-inflammatory cytokines. Type of test: in vivo. The conditions noted are these: neocortex of α-syn-tg mice; 5 mg/kg IP daily for four weeks. The protocol: as §1
(§5) Total mRNA was extracted from mice frontal cortex using RNeasy Lipid mini kit (Qiagen, Germantown, Md.) and reverse transcribed using SuperScript VILO cDNA synthesis kit (Life Technologies), respectively. Quantitative real-time PCR was performed using TaqMan® Fast Advanced Master Mix (Life Technologies) according to manufacturer's instructions with gene specific primers obtained from Life Technologies, such as TNFα (Mm00443258_m1), IL6 (Mm00446190_m1), IL-1β (Mm00434228_m1), and β-actin (Mm00607939_s1). Amplification of DNA products was measured by the StepOnePlus real-time PCR system (Applied Biosystems, Carlsbad, Calif.). Relative mRNA levels were calculated according to the 2-exp (ΔΔCt) method. All ΔCT values were normalized to β-actin.
as §4
A general note: Quantitative PCR measures a nucleic acid by following its amplification.

The subject of test [4] is α-syn-tg mice. The test can be described thus: Neurodegeneration analysis (TH-positive striatal fibers). Type of test: in vivo. The conditions noted are these: 5 mg/kg IP daily for four weeks. As to the method:
as §1, §2
as §3, with “(NIH). […]” for “(NIH).”

Test [5] deals with α-syn-tg mice. The test can be described thus: Open field and round beam behavioral tests. Type of test: in vivo. The conditions noted are these: 5 mg/kg IP daily for four weeks. The protocol: as §1
Following treatment, the mice were assessed for gait and coordination using the open field and the round beam tests. Total activity was calculated as total beam breaks in ten minutes. The impairment of gait and balance were assessed by round beam analysis. Three consecutive trials of one minute each were run in one day. The numbers of foot slippages and distance traveled were recorded. The total errors on the beam were calculated as foot slips/distance traveled.
A positive interactive effect of HE treatment on the beam break numbers (Finteraction (1, 16)=15.61, p=0.0011) and total round beam errors (Finteraction (1, 16)=8.58, p=0.0098) was confirmed by two-way ANOVA.

Test [6] has as its system α-synuclein. The test can be described thus: Immunohistochemical and immunofluorescence analysis of α-synuclein accumulation in brain sections. Type of test: in vivo, mice. As to conditions: 5 mg/kg IP daily for four weeks. As to the method: as §1, §2, §3
To determine whether the behavioral improvements observed in the α-syn-tg mice were related to alterations of α-synuclein pathology, immunohistochemical analysis was performed for α-synuclein with brain sections from non-tg and α-syn-tg mice treated with either vehicle or HE. […]
Immunofluorescence analysis of human α-synuclein in the frontal cortex of non-tg and α-syn-tg mice treated with either vehicle or hypoestoxide was performed. […] Additionally, fluorescence intensity against human α-synuclein was analyzed in frontal cortex of the brains. Immunoreactivity against human α-synuclein was not detected in the frontal cortex of non-tg mice, but it was highly detected in the frontal cortex of α-syn-tg mice. […]

Test [7] concerns α-synuclein. As to the kind of experiment: Immunoblot analysis of α-synuclein in SDS-soluble and SDS-insoluble brain homogenate fractions. As to conditions: brain homogenates of α-syn-tg mice; 5 mg/kg IP daily for four weeks. Type of test: in vivo. The protocol:
as §1
(§6) Brain homogenates were prepared in the lysis buffer to separate SDS-soluble and SDS-insoluble fractions. Chemiluminescence detection and analysis were performed using Versadoc XL imaging apparatus and Quantity One (Bio-rad, Hercules, Calif.).
FIGS. 3F-3G show the results of a biochemical analysis. Brain homogenates were separated into SDS-soluble and SDS-insoluble factions, and analyzed by immunoblot analysis. The levels of α-synuclein in SDS-soluble fractions from α-syn tg mice were not affected by HE administration. […] A positive interactive effect of HE treatment on the level of SDS-insoluble α-synuclein (Finteraction (1, 16)=8.68, p=0.0095) was confirmed by two-way ANOVA.

For test [8], the system named is NF-κB. The test can be described thus: Immunofluorescence analysis of NF-κB and phosphorylated-NF-κB in neocortex. Type of test: in vivo, mice. The conditions noted are these: 5 mg/kg IP daily for four weeks. The protocol: as §1, §2
as §3, with “(NIH). […]” for “(NIH).”

Test [9] deals with NF-κB. The test can be described thus: Western blot analysis of NF-κB in cytosolic and nuclear fractions of cortex homogenates. The test is classed as in vivo, mice. The conditions noted are these: 5 mg/kg IP daily for four weeks. As to the method: as §1, §6
Biochemical analysis using brain homogenates from the cortex of non-tg and α-syn-tg mice was performed. Brain homogenates were separated into cytosolic and nuclear fractions by centrifugation, and each fraction was analyzed by western blot analysis. Total levels of NF-κB were not altered by HE administration in non-tg and α-syn-tg mice. […] A positive interactive effect of HE treatment on the level of phosphorylated-NF-κB (Finteraction (1, 16)=11.55, p=0.0037) was confirmed by two-way ANOVA.
On the technique in general: Immunoblotting shows a protein as a band on a membrane.

The subject of test [10] is α-synuclein mRNA. As to the kind of experiment: α-synuclein mRNA levels. The test is classed as in vivo, mice. The conditions noted are these: model of PD. As to the method:
as §1, §5
Intraneuronal accumulations of α-synuclein aggregates are typical pathological features of PD. […]

The mark [11] stands for this setting: frontal cortex of α-syn-tg mice.

On to `C=C1C(=O)C[C@H]2C[C@@H]3O[C@@]3(C)CC[C@@H]3O[C@@]3(C)C[C@@H](OC(C)=O)[C@H]1C2(C)C` [HE, hypoestoxide], for which, in test [1] (neocortex of α-syn-tg mice), the “levels of astrogliosis (GFAP)” value is given as “significantly decreased” and the “numbers of microglial cells (Iba-1-positive)” value is given as “significantly decreased”. In [1] (α-syn-tg mice), the “numbers of branches per glial cell” value is “decreased”. In test [2], the “level of IL6 (immunohistochemical analysis)” value is reported as “significantly reduced”, the “level of IL-1β (immunohistochemical analysis)” value is “significantly reduced” and the “level of TNFα (immunohistochemical analysis)” value is on record as “significantly reduced”. Besides, in [3], the “mRNA level of IL6” value is “clearly decreased”, the “mRNA level of IL-1β” value was “clearly decreased” and the “mRNA level of TNFα” value is given as “clearly decreased”. Also, in test [4], the “loss of TH-positive striatal fibers” value is reported as “significantly decreased”. In [5], the “beam break numbers (open field test)” value is listed as “reduced these errors to levels observed in non-tg mice” and the “total round beam errors” value is recorded as “reduced these errors to levels observed in non-tg mice”. For the same compound, in test [6] (setting [11]), the “immunoreactivity against C-terminus human α-synuclein” value is reported as “significantly decreased” and the “level of human α-synuclein immunoreactivity (immunofluorescence)” value is reported as “significantly decreased”. The “levels of α-synuclein in neurons and neuropil (immunohistochemical analysis)” value in [6] (α-syn-tg mice, frontal cortex, hippocampus, striatum) is “significantly decreased”. In test [7], the “levels of SDS-insoluble α-synuclein” value is listed as “significantly decreased” and the “levels of α-synuclein in SDS-soluble fractions” value is on record as “not affected”. Moreover, the “total levels of NF-κB (immunofluorescence)” value in test [8] (neocortex of non-tg or α-syn-tg mice) is listed as “not changed”. In addition, in test [8] (neocortex of α-syn-tg mice), the “level of phosphorylated-NF-κB (immunofluorescence)” value was “significantly decreased”. The “total levels of NF-κB (western blot)” value in test [9] (cortex homogenates of non-tg and α-syn-tg mice) is listed as “not altered”. Also, the “level of phosphorylated NF-κB (western blot)” value in test [9] (cortex homogenates of α-syn-tg mice, nuclear fractions) is “significantly reduced”. For the same compound, the “levels of α-synuclein mRNA” value in test [10] is reported as “not affected”.
